Like-named read-outs stand apart in the source and are kept apart here.
Assays:
[1] = test system: Walker carcinosarcoma 256; assay: Walker carcinosarcoma 256 tumour growth inhibition (single p.o. dose); type: in vivo, Female Sprague Dawley rats; settings: for ED50: Rattus norvegicus, po; for T.I. LD50/ED50: therapeutic index LD50/ED50; for T.I. LD50/ED50 / activity in the foregoing test (Walker carcinosarcoma 256): p.o.; for activity in the foregoing test (Walker carcinosarcoma 256): dose of 8 mg/kg, preliminary experiments
Source text: (§1) A therapeutic index is an indication of the therapeutic usefulness of a compound, and such an index may be defined in various ways. One type of therapeutic index commonly used is the ratio LD50/ED50, wherein LD50 is the dose that causes a 50 percent lethality, and ED50 is the dose that causes a 50 percent reduction of tumour size. Another type of therapeutic index, useful in evaluation of increasing survival time, is the ratio between maximum and minimum effective dose. Both these types of therapeutic indexes are used and given in the experimental results below.
(§2) The manner of administration of the compounds is by the oral (p. o.) route in each case.
(§3) Experimental animals: Female Sprague Dawley rats
(§4) Tumour implants: Tumour pieces with 2-3 mm diameter, implanted subcutaneously
(§5) Therapy: The compound is administered p. o. once on the day after the implantation
Termination: The animals are killed on the 9th day after implantation
(§6) Evaluation: Weight of tumour is determined in test animals and compared with those of control animals. For each compound the LD50 and ED50 dose (as defined above) are determined. The therapeutic index, T. I., (LD50/ED50) is calculated.

[2] = in vivo; settings: rat, po
Source text: as §1, §2, §3, §4, §5, §6

[3] = test system: Lymphatic leukemia L1210; assay: Lymphatic leukemia L1210 survival test (survival time increase, long term survival, cure potential); type: in vivo, Female BDF1 mice; settings: for minimal effective dose: Mus musculus, L1210, po; for T.I.s (long term survival; max.effect.dose/min.effect.dose): long term survival T·100/To >20%; for T.I.s = max.effect.dose/min.effect.dose: survival time increase, t·100/c ≥125%; for Dose or dose range for cure: ≥90% long term survivors on day 60; for median survival time percent of control: dose of 125 mg/kg, p.o., called significant activity
Protocol: The experimental design and interpretation of the results are in accordance with the standards set by the CCNSC (see reference (16)) and by the DR&D (see reference (17)).
Experimental animals: Female BDF1 mice
Tumour implants: 10^5 tumour cells implanted intraperitoneally (i. p.)
Therapy: The compounds were administered p. o. once on the day following the implantation.
Termination: The animals were killed on the 60th day after the implantation. Living animals on the 60th day are termed long term survivors.
(a) Evaluation of therapeutic dose range for survival time increase: Survival times at various dose levels are determined, and the survival time of the test animals (t) is expressed as the percentage of that of the control animals (c):
The maximum effective dose and the minimum effective dose required to achieve t·100/c≥125% are determined, and a therapeutic index as defined below is calculated:
T. I.s =max.effect.dose/min.effect.dose.
(b) Evaluation of therapeutic dose range for long term survival: Long time survival is determined at various dose levels and is expressed as surviving test animals on day 60 (T) as the percentage of that of the total number of test animals (To):
The maximum effective dose and the minimum effective dose to achieve long term survival T·100/To >20% are determined and a therapeutic index, T. I.1 s is calculated:
T. I.1s =max.effect.dose/min.effect.dose.
(c) Evaluation of cure potential: The normal survival time for test animals receiving no therapeutic treatment is 9-11 days. Surviving test animals on the 60th day after implantation showing no sign of tumour presence are regarded as cured animals. Long term survival is determined as under (b) above, and the effective dose or dose range to achieve a long term survival T·100/To ≥90% is determined as an evaluation of the cure potential.

[4] = dose that causes a 50 percent reduction of tumour size, p.o. once, read-out: ED50
[5] = 1440 h, >20% long term survivors on day 60, p.o. once, read-out: Minimum effective dose (long term survival)
[6] = median survival time percent of control ≥ 125%, p.o. once, read-out: Minimum effective dose (survival time increase)
[7] = median survival time percent of control ≥ 125%, p.o. once
[8] = >20% long term survivors on day 60, p.o. once

## O=P1(N(CCCl)CCCl)NCCCO1 (stereo not drawn) [Cyclophosphamide, reference compound]
[1]
  ED50: 6 mg/kg
  T.I. LD50/ED50: 30
[2]
  LD50: 180 mg/kg

## O=NN(CCCl)C(=O)NCCS(=O)(=O)NCCO [1:14, 1-(2-chloroethyl)-3-(2-/2-hydroxyethylaminosulfonyl/ethyl)-1-nitrosourea]
[1]; [4]
  ED50: 0.6 mg/kg
[1]
  T.I. LD50/ED50: 150
[2]
  LD50: 90 mg/kg
[3]; [5]
  minimal effective dose: 31 mg/kg
[3]; [6]
  minimal effective dose: 16 mg/kg
[3]
  T.I.s (long term survival; max.effect.dose/min.effect.dose): 4
  T.I.s = max.effect.dose/min.effect.dose: 8
[3]; [7]
  Maximum effective dose (survival time increase): 125 mg/kg
[3]; p.o. once
  Dose or dose range for cure: 63 mg/kg

## CN(c1ccccc1)S(=O)(=O)CCNC(=O)N(CCCl)N=O [1:18, 1-(2-chloroethyl)-3-(2-/N-methyl-N-phenylaminosulfonyl/ethyl)-1-nitrosourea]
[3]
  median survival time percent of control: ≥ 125%

## CCN(C)S(=O)(=O)CCNC(=O)N(CCCl)N=O [1:52, 1-(2-chloroethyl)-3-(2-/N-ethyl-N-methylaminosulfonyl/ethyl)-1-nitrosourea]
[1]
  activity in the foregoing test (Walker carcinosarcoma 256): significant activity
[3]; [5]
  minimal effective dose: 31 mg/kg
[3]
  T.I.s (long term survival; max.effect.dose/min.effect.dose): 2

## O=NN(CCCl)C(=O)NCCS(=O)(=O)N(CCO)CCO [1:12, 3-(2-/bis(2-hydroxyethyl)aminosulfonyl/ethyl)-1-(2-chloroethyl)-1-nitrosourea]
[3]; p.o. once
  Dose or dose range for cure: 125 mg/kg

## CN(C1CCCCC1)S(=O)(=O)CCNC(=O)N(CCCl)N=O [1:28, 1-(2-chloroethyl)-3-(2-/N-cyclohexyl-N-methylaminosulfonyl/ethyl)-1-nitrosourea]
[1]; [4]
  ED50: 2.5 mg/kg
[1]
  T.I. LD50/ED50: > 100
[2]
  LD50: > 250 mg/kg
[3]; [5]
  minimal effective dose: 125 mg/kg
[3]; [6]
  minimal effective dose: 31 mg/kg
[3]
  T.I.s (long term survival; max.effect.dose/min.effect.dose): 2
  T.I.s = max.effect.dose/min.effect.dose: 8
[3]; [7]
  Maximum effective dose (survival time increase): 250 mg/kg
[3]; p.o. once
  Dose or dose range for cure: 125 mg/kg

## CCN(CCS(=O)(=O)N(C)C)C(=O)N(CCCl)N=O [1:54, 1-(2-chloroethyl)-3-(2-/dimethylaminosulfonyl/ethyl)-3-ethyl-1-nitrosourea]
[1]
  activity in the foregoing test (Walker carcinosarcoma 256): significant activity
[3]
  median survival time percent of control: ≥ 125%

## CC1CCC(NC(=O)N(CCCl)N=O)CC1 (stereo not drawn) [Methyl-CCNU, 1-(2-chloroethyl)-3-(4-methyl-cyclohexyl)-1-nitrosourea, reference compound]
[3]; [8]
  Maximum effective dose (long term survival): none
  Minimum effective dose (long term survival): none
[3]; [6]
  minimal effective dose: 8 mg/kg
[3]
  T.I.s (long term survival; max.effect.dose/min.effect.dose): none
  T.I.s = max.effect.dose/min.effect.dose: 4
[3]; [7]
  Maximum effective dose (survival time increase): 31 mg/kg

## CNS(=O)(=O)CCNC(=O)N(CCCl)N=O [1:5, 1-(2-chloroethyl)-3-(2-/methylaminosulfonyl/ethyl)-1-nitrosourea]
[1]; [4]
  ED50: 0.25 mg/kg
[1]
  T.I. LD50/ED50: 160
[2]
  LD50: 40 mg/kg
[3]; [6]
  minimal effective dose: 8 mg/kg
[3]; [7]
  Maximum effective dose (survival time increase): 63 mg/kg
[3]
  T.I.s = max.effect.dose/min.effect.dose: 8
[3]; p.o. once
  Dose or dose range for cure: 31 mg/kg

## O=NN(CCCl)C(=O)NCCCl [BCNU, 1,2-bis-(2-chloroethyl)-nitrosourea, reference compound]
[1]; [4]
  ED50: 1 mg/kg
[1]
  T.I. LD50/ED50: 50
[2]
  LD50: 50 mg/kg
[3]; [5]
  minimal effective dose: 63 mg/kg
[3]; [6]
  minimal effective dose: 16 mg/kg
[3]
  T.I.s (long term survival; max.effect.dose/min.effect.dose): 1
  T.I.s = max.effect.dose/min.effect.dose: 4
[3]; [7]
  Maximum effective dose (survival time increase): 63 mg/kg
[3]; p.o. once
  Dose or dose range for cure: none

## CON(C)S(=O)(=O)CCNC(=O)N(CCCl)N=O [1:20, 1-(2-chloroethyl)-3-(2-/N-methoxy-N-methylaminosulfonyl/ethyl)-1-nitrosourea]
[3]; [5]
  minimal effective dose: 63 mg/kg
[3]; [6]
  minimal effective dose: 16 mg/kg
[3]
  T.I.s (long term survival; max.effect.dose/min.effect.dose): 2
  T.I.s = max.effect.dose/min.effect.dose: 8
[3]; [7]
  Maximum effective dose (survival time increase): 125 mg/kg
[3]; p.o. once
  Dose or dose range for cure: 63 to 125 mg/kg

## O=NN(CCCl)C(=O)NCCS(=O)(=O)NC1CCCCC1 [1:11, 1-(2-chloroethyl)-3-(2-/cyclohexylaminosulfonyl/ethyl)-1-nitrosourea]
[3]; [5]
  minimal effective dose: 63 mg/kg
[3]; [6]
  minimal effective dose: 31 mg/kg
[3]
  T.I.s (long term survival; max.effect.dose/min.effect.dose): 2
  T.I.s = max.effect.dose/min.effect.dose: 8
[3]; [7]
  Maximum effective dose (survival time increase): 250 mg/kg
[3]; p.o. once
  Dose or dose range for cure: 125 mg/kg

## CC(C)(CO)NS(=O)(=O)CCNC(=O)N(CCCl)N=O [1:16, 1-(2-chloroethyl)-3-(2-/1,1-dimethyl-2-hydroxyethylaminosulfonyl/ethyl)-1-nitrosourea]
[3]; p.o. once
  Dose or dose range for cure: 250 mg/kg

## COCCNS(=O)(=O)CCNC(=O)N(CCCl)N=O [1:8, 1-(2-chloroethyl)-3-(2-/2-methoxyethylaminosulfonyl/ethyl)-1-nitrosourea]
[3]; [5]
  minimal effective dose: 31 mg/kg
[3]
  T.I.s (long term survival; max.effect.dose/min.effect.dose): 2
[3]; p.o. once
  Dose or dose range for cure: 31 to 63 mg/kg

## CC(C)(C)NS(=O)(=O)CCNC(=O)N(CCCl)N=O [1:10, 3-(2-/t-butylaminosulfonyl/ethyl)-1-(2-chloroethyl)-1-nitrosourea]
[3]
  median survival time percent of control: ≥ 125%

## CCCN(CC)S(=O)(=O)CCNC(=O)N(CCCl)N=O [1:53, 1-(2-chloroethyl)-3-(2-/N-ethyl-N-propylaminosulfonyl/ethyl)-1-nitrosourea]
[1]; [4]
  ED50: 1.7 mg/kg
[3]; [5]
  minimal effective dose: 125 mg/kg
[3]; [6]
  minimal effective dose: 31 mg/kg
[3]
  T.I.s (long term survival; max.effect.dose/min.effect.dose): 2
  T.I.s = max.effect.dose/min.effect.dose: 16
[3]; [7]
  Maximum effective dose (survival time increase): 500 mg/kg
[3]; p.o. once
  Dose or dose range for cure: 125 to 150 mg/kg

## O=NN(CCCl)C(=O)NC1CCCCC1 [CCNU, 1-(2-chloroethyl)-3-cyclohexyl-1-nitrosourea, reference compound]
[1]; [4]
  ED50: 1 mg/kg
[1]
  T.I. LD50/ED50: 90
[2]
  LD50: 90 mg/kg

## CCCCNS(=O)(=O)CCNC(=O)N(CCCl)N=O [1:9, 3-(2-/butylaminosulfonyl/ethyl)-1-(2-chloroethyl)-1-nitrosourea]
[3]; [5]
  minimal effective dose: 63 mg/kg
[3]; [6]
  minimal effective dose: 16 mg/kg
[3]
  T.I.s (long term survival; max.effect.dose/min.effect.dose): 2
  T.I.s = max.effect.dose/min.effect.dose: 8
[3]; [7]
  Maximum effective dose (survival time increase): 125 mg/kg
[3]; p.o. once
  Dose or dose range for cure: 63 mg/kg

## CCCCC(C)NS(=O)(=O)CCNC(=O)N(CCCl)N=O (stereo not drawn) [1:13, 1-(2-chloroethyl)-3-(2-/1-methylpentylaminosulfonyl/ethyl)-1nitrosourea]
[3]
  median survival time percent of control: ≥ 125%

## CN(C)S(=O)(=O)CCNS(=O)(=O)CCNC(=O)N(CCCl)N=O [1:23, 1-(2-chloroethyl)-3-(2-/2-(dimethylaminosulfonyl)ethylaminosulfonyl/ethyl)-1-nitrosourea]
[3]; [5]
  minimal effective dose: 63 mg/kg
[3]
  T.I.s (long term survival; max.effect.dose/min.effect.dose): 2
[3]; p.o. once
  Dose or dose range for cure: 125 mg/kg

## CN(Cc1ccccc1)S(=O)(=O)CCNC(=O)N(CCCl)N=O [1:17, 3-(2-/N-benzyl-N-methylaminosulfonyl/ethyl)-1-(2-chloroethyl)-1-nitrosourea]
[3]; [5]
  minimal effective dose: 125 mg/kg
[3]; [6]
  minimal effective dose: 63 mg/kg
[3]
  T.I.s (long term survival; max.effect.dose/min.effect.dose): 2
  T.I.s = max.effect.dose/min.effect.dose: 8
[3]; [7]
  Maximum effective dose (survival time increase): 500 mg/kg

## COCCN(CCS(=O)(=O)N(C)C)C(=O)N(CCCl)N=O [1:48, 1-(2-chloroethyl)-3-(2-methoxyethyl)-3-/2-(dimethylaminosulfonyl)ethyl/-1-nitrosourea]
[1]
  activity in the foregoing test (Walker carcinosarcoma 256): significant activity

## CN(C)S(=O)(=O)CCCNC(=O)N(CCCl)N=O [1:21, 1-(2-chloroethyl)-3-(3-/dimethylaminosulfonyl/propyl)-1-nitrosourea]
[3]; [5]
  minimal effective dose: 31 mg/kg
[3]; [6]
  minimal effective dose: 8 mg/kg
[3]
  T.I.s (long term survival; max.effect.dose/min.effect.dose): 2
  T.I.s = max.effect.dose/min.effect.dose: 8
[3]; [7]
  Maximum effective dose (survival time increase): 63 mg/kg
[3]; p.o. once
  Dose or dose range for cure: 31 to 63 mg/kg
